Results from US5045458A, “Antibiotics PB-6042S” (Shionogi & Co., Ltd., priority 1988, dated 1991).
In brackets after ≈: the same amount, converted by molar mass. Where two headings read alike, the source gives them in different places.

Columns and labels:
[1] = test system: P. asaccharolyticus ATCC14963; assay: MIC against anaerobic bacteria; format: cell-based; details: Peptoniphilus asaccharolyticus, ATCC14963
P. anaerobius B-38 = assay: MIC against anaerobic bacteria; format: cell-based; details: Peptostreptococcus anaerobius, B38
P. prevotii ATCC9321 = assay: MIC against anaerobic bacteria; format: cell-based; details: Anaerococcus prevotii, ATCC9321
P. micros VPI5464-1 = assay: MIC against anaerobic bacteria; format: cell-based; details: Parvimonas micra, VPI54641
[2] = test system: S. constellatus ATCC27823; assay: MIC against anaerobic bacteria; format: cell-based; details: Streptococcus constellatus
E. lentum II-1 = assay: MIC against anaerobic bacteria; format: cell-based; details: Eggerthella lenta, II1
E. limosum ATCC8486 = assay: MIC against anaerobic bacteria; format: cell-based; details: Eubacterium limosum; E. limosum ATCC8486; read-out: MIC
E. aerofaciens ATCC25986 = assay: MIC against anaerobic bacteria; format: cell-based; details: Collinsella aerofaciens, ATCC25986
P. acens ATCC11827 = assay: MIC against anaerobic bacteria; format: cell-based
B. adolescentis JCM1250 = assay: MIC against anaerobic bacteria; format: cell-based; details: Bifidobacterium adolescentis, JCM1250
B. bifidum JCM1122 = assay: MIC against anaerobic bacteria; format: cell-based; details: Bifidobacterium bifidum
B. longum ATCC15707 = assay: MIC against anaerobic bacteria; format: cell-based; details: Bifidobacterium longum
L. plantarum JCM1100 = assay: MIC against anaerobic bacteria; format: cell-based; details: Lactiplantibacillus plantarum
L. ruminis ATCC27780 = assay: MIC against anaerobic bacteria; format: cell-based; details: L. ruminis ATCC27780; read-out: MIC
C. perfringens SAKAI = assay: microbe, parasite or virus in culture; format: cell-based; details: Clostridium perfringens
C. perfringens ATCC13124 = assay: microbe, parasite or virus in culture; format: cell-based; details: Clostridium perfringens
C. difficile ATCC17857 = assay: MIC against anaerobic bacteria; format: cell-based; details: Clostridioides difficile
B. fragilis GM7000 = assay: MIC against anaerobic bacteria; format: cell-based; details: Bacteroides fragilis; B. fragilis GM7000; read-out: MIC
B. fragilis ATCC25285 = assay: MIC against anaerobic bacteria; format: cell-based; details: Bacteroides fragilis; B. fragilis ATCC25285; read-out: MIC
[3] = test system: B. thetaiotaomicron WAL3304; assay: MIC against anaerobic bacteria; format: cell-based; details: Bacteroides thetaiotaomicron; B. thetaiotaomicron WAL3304; read-out: MIC
B. vulgatus ATCC29327 = assay: MIC against anaerobic bacteria; format: cell-based; details: Phocaeicola vulgatus; B. vulgatus ATCC29327; read-out: MIC
B. distasonis JU-11-1 = assay: MIC against anaerobic bacteria; format: cell-based; details: Parabacteroides distasonis, JU111; B. distasonis JU-11-1; read-out: MIC
B. ovatus 2505 = assay: MIC against anaerobic bacteria; format: cell-based; details: Bacteroides ovatus; B. ovatus 2505; read-out: MIC
[4] = test system: B. melaninogenicus GAI0413; assay: MIC against anaerobic bacteria; format: cell-based
F. varium ATCC8501 = assay: MIC against anaerobic bacteria; format: cell-based; details: Fusobacterium varium
F. necrophorum ATCC25286 = assay: MIC against anaerobic bacteria; format: cell-based; details: Fusobacterium necrophorum
F. nucleatum ATCC25586 = assay: MIC against anaerobic bacteria; format: cell-based; details: Fusobacterium nucleatum
F. mortiferum ATCC9817 = assay: MIC against anaerobic bacteria; format: cell-based; details: Fusobacterium mortiferum
anaerobic bacteria = assay: antibacterial activity against anaerobic bacteria (summary); format: cell-based; details: in words
[5] = filter paper electrophoresis and bioautography (acidic property); format: physicochemical
Source text: Other physicochemical properties of PB-6042s in the form of sodium salt are listed below.

S. aureus FDA JC-1 = assay: MIC against aerobic bacteria; details: Staphylococcus aureus, FDAJC1
S. aureus SR14(R) = assay: MIC against aerobic bacteria; details: Staphylococcus aureus
S. pyogenes C-203 = assay: MIC against aerobic bacteria; details: Streptococcus pyogenes, C203
S. pneumoniae TYPE 1 = assay: MIC against aerobic bacteria; details: Streptococcus pneumoniae, TYPE1
E. coli NIHJ JC-2 = assay: MIC against aerobic bacteria; details: Escherichia coli, NIHJJC2
K. pneumoniae SR1 = assay: MIC against aerobic bacteria; details: Klebsiella pneumoniae
P. vulgaris CN-329 = assay: MIC against aerobic bacteria; details: Proteus vulgaris, CN329
P. aeruginosa A25619 = assay: MIC against aerobic bacteria; details: Pseudomonas aeruginosa

Row | SMILES | MIC [1] [µg/mL] | MIC (P. anaerobius B-38) [µg/mL] | MIC (P. prevotii ATCC9321) [µg/mL] | MIC (P. micros VPI5464-1) [µg/mL] | MIC [2] [µg/mL] | MIC (E. limosum ATCC8486) [µg/mL] | MIC (E. aerofaciens ATCC25986) [µg/mL] | MIC (P. acens ATCC11827) [µg/mL] | MIC (B. adolescentis JCM1250) [µg/mL] | MIC (L. ruminis ATCC27780) [µg/mL] | MIC (C. perfringens SAKAI) [µg/mL] | MIC (C. perfringens ATCC13124) [µg/mL] | MIC (C. difficile ATCC17857) [µg/mL] | MIC (B. fragilis GM7000) [µg/mL] | MIC (B. fragilis ATCC25285) [µg/mL] | MIC [3] [µg/mL] | MIC (B. vulgatus ATCC29327) [µg/mL] | MIC (B. distasonis JU-11-1) [µg/mL] | MIC (B. ovatus 2505) [µg/mL] | MIC (F. varium ATCC8501) [µg/mL] | also measured
1 | C=C1OC(=O)C(C(=O)CCCCCCCCC)=C1O [PB-6042A] | 12.5 (≈ 46.9 µM) | 3.13 (≈ 11.8 µM) | 12.5 (≈ 46.9 µM) | 1.56 (≈ 5.86 µM) | 3.13 (≈ 11.8 µM) | 6.25 (≈ 23.5 µM) | 12.5 (≈ 46.9 µM) | 3.13 (≈ 11.8 µM) | 12.5 (≈ 46.9 µM) | 6.25 (≈ 23.5 µM) | 12.5 (≈ 46.9 µM) | 12.5 (≈ 46.9 µM) | 3.13 (≈ 11.8 µM) | 3.13 (≈ 11.8 µM) | 3.13 (≈ 11.8 µM) | 3.13 (≈ 11.8 µM) | 3.13 (≈ 11.8 µM) | 3.13 (≈ 11.8 µM) | 3.13 (≈ 11.8 µM) | > 100 | MIC (E. lentum II-1; E. lentum II-1, read-out: MIC): 6.25 µg/mL (≈ 23.5 µM); MIC (B. bifidum JCM1122; JCM1122): 12.5 µg/mL (≈ 46.9 µM); MIC (B. longum ATCC15707; B. longum ATCC15707, read-out: MIC): 6.25 µg/mL (≈ 23.5 µM); MIC (L. plantarum JCM1100; JCM1100): 12.5 µg/mL (≈ 46.9 µM); MIC ([4]; B. melaninogenicus GAI0413, read-out: MIC): 6.25 µg/mL (≈ 23.5 µM); MIC (F. necrophorum ATCC25286): 6.25 µg/mL (≈ 23.5 µM); MIC (F. nucleatum ATCC25586): 6.25 µg/mL (≈ 23.5 µM); MIC (F. mortiferum ATCC9817; ATCC9817): 12.5 µg/mL (≈ 46.9 µM); growth inhibition of anaerobic bacteria (anaerobic bacteria): inhibit the growth of anaerobic bacteria, selectively; acidic property [5]: acidic substances; MIC (S. aureus FDA JC-1): 25 µg/mL (≈ 93.9 µM); MIC (S. aureus SR14(R)): > 100 µg/mL; MIC (S. pyogenes C-203): 25 µg/mL (≈ 93.9 µM); MIC (S. pneumoniae TYPE 1): 25 µg/mL (≈ 93.9 µM); MIC (E. coli NIHJ JC-2): > 100 µg/mL; MIC (K. pneumoniae SR1): > 100 µg/mL; MIC (P. vulgaris CN-329): > 100 µg/mL; MIC (P. aeruginosa A25619): > 100 µg/mL
2 | C=C1OC(=O)C(C(=O)CCC/C=C\CCCCCC)=C1O [PB-6042B] | 6.25 (≈ 21.4 µM) | 3.13 (≈ 10.7 µM) | 6.25 (≈ 21.4 µM) | 1.56 (≈ 5.34 µM) | 1.56 (≈ 5.34 µM) | 3.13 (≈ 10.7 µM) | 6.25 (≈ 21.4 µM) | 3.13 (≈ 10.7 µM) | 6.25 (≈ 21.4 µM) | 3.13 (≈ 10.7 µM) | 6.25 (≈ 21.4 µM) | 6.25 (≈ 21.4 µM) | 1.56 (≈ 5.34 µM) | 3.13 (≈ 10.7 µM) | 3.13 (≈ 10.7 µM) | 3.13 (≈ 10.7 µM) | 3.13 (≈ 10.7 µM) | 3.13 (≈ 10.7 µM) | 3.13 (≈ 10.7 µM) | > 100 | MIC (E. lentum II-1): 6.25 µg/mL (≈ 21.4 µM); MIC (B. bifidum JCM1122; B. bifidum JCM1122, read-out: MIC): 12.5 µg/mL (≈ 42.8 µM); MIC (B. longum ATCC15707; ATCC15707): 6.25 µg/mL (≈ 21.4 µM); MIC (L. plantarum JCM1100; L. plantarum JCM1100, read-out: MIC): 12.5 µg/mL (≈ 42.8 µM); MIC ([4]; GAI0413): 6.25 µg/mL (≈ 21.4 µM); MIC (F. necrophorum ATCC25286): 12.5 µg/mL (≈ 42.8 µM); MIC (F. nucleatum ATCC25586): 12.5 µg/mL (≈ 42.8 µM); MIC (F. mortiferum ATCC9817; F. mortiferum ATCC9817, read-out: MIC): 25 µg/mL (≈ 85.5 µM); growth inhibition of anaerobic bacteria (anaerobic bacteria): inhibit the growth of anaerobic bacteria, selectively; acidic property [5]: acidic substances; MIC (S. aureus FDA JC-1): 12.5 µg/mL (≈ 42.8 µM); MIC (S. aureus SR14(R)): 12.5 µg/mL (≈ 42.8 µM); MIC (S. pyogenes C-203): 12.5 µg/mL (≈ 42.8 µM); MIC (S. pneumoniae TYPE 1): 12.5 µg/mL (≈ 42.8 µM); MIC (E. coli NIHJ JC-2): > 100 µg/mL; MIC (K. pneumoniae SR1): > 100 µg/mL; MIC (P. vulgaris CN-329): > 100 µg/mL; MIC (P. aeruginosa A25619): > 100 µg/mL
